{
  "source": "patent US6451803B1",
  "about": "“N-acyl and n-aroyl aralkyl amides useful in treating seritonergic disorders” (Pfizer INC, priority 1998, dated 2002)",
  "data": [
    {"compound": "CN1CCN(c2ccccc2CCNC(=O)c2ccc(Cl)c(Cl)c2)CC1.Cl.O", "note": "(hydrate or solvate)", "values": [
      {"measurement": "melting point", "result": "110 to 120", "unit": "°C"}
    ]}
  ]
}
